Here are results for four compounds from publication PMC7913621 (Molecules, 2021).

Molecules are shown by their SMILES.

Experiment [1] concerns epidermoid carcinoma A-431. The experiment is described as follows: MTT cell viability assay, A-431. It counts as cell-based, human. Particulars: Homo sapiens; A-431, MTT, 72 h; median (95% Confidence Intervals). As to the method: (§1) The following human cell lines were used in this study: (i) epidermoid carcinoma A-431 (ATCC® CRL-1555), (ii) lung carcinoma A549 (ATCC® CCL-185), (iii) colorectal carcinoma HCT116 (ATCC® CCL-247), (iv) HCT116p53^−/−, (v) glioblastoma U-87 MG (ATCC® HTB-14), (vi) glioblastoma U-251 MG (ECACC 09063001), (vii) breast adenocarcinoma MCF7 (ATCC® HTB-22), (viii) breast adenocarcinoma MDA-MB-231 (ECACC 92020424), (ix) papillomavirus-related cervical squamous cell carcinoma SKG-IIIa (RRID:CVCL_1704), (x) cervical adenocarcinoma HeLa (ATCC® CCL-2), (xi) bone osteosarcoma U-2 OS (ATCC® HTB-96), (xii) hepatocellular carcinoma HEPG2 (ATCC® HB-8065), (xiii) larynx squamous cell carcinoma BICR 18 (ECACC 06051601), (ix) kidney HEK 293T (ATCC® CRL-11268), (xv) normal lung fibroblasts MRC-5 (ATCC® CCL-171), (xvi) normal fibroblasts BJ (ATCC® CRL-2522). The HCT116p53^−/− cell line was a kind gift from professor Bert Vogelstein (John Hopkin’s University, Baltimore, MD, USA). The remaining cell lines were purchased from ATCC (Manassas, VA, USA) or Sigma-Aldrich by Merck (Darmstadt, Germany).
(§2) Cells were cultured in minimal or Dulbecco’s modified Eagle’s or Ham’s F10 medium supplemented with 10% fetal bovine serum (Gibco by Thermo Fisher Scientific, Waltham, MA, USA) and (for BICR 18) 0.4 μg/mL hydrocortizone (Sigma-Aldrich by Merck, Darmstadt, Germany) under standard culture conditions (37 °C, 5% CO2) in a humidified incubator with an atmospheric oxygen.
(§3) The viability of cells was assayed by measuring the conversion of MTT (3-(4,5-dimethylthiazol-2-yl)-2,5-diphenyltetrazolium bromide) to the formazan (the rate of this reaction is proportional to the number of surviving cells). Cells were seeded in a 96-well plate at a density of 2500–3500 cells per well, 24 h before treatment. […] MTT stock solution (Sigma-Aldrich) was added at the final concentration 0.5 mg/mL. After 4 h of incubation at 37 °C, water-insoluble formazan was dissolved in a lysis buffer containing 20% SDS, 50% DMF, 2.5% hydrochloric acid and 2.5% acetic acid. Optical densities were measured at 570 nm using a scanning multi-well spectrophotometer ([…] Detection Platform; Beckman Coulter, Brea, CA, USA). At least three independent experiments of viability were conducted.

In a further experiment the test system is lung carcinoma A549. The experiment is described as follows: MTT cell viability assay, A549. It counts as cell-based, human. The note with it: Homo sapiens, 72 h, median (95% Confidence Intervals). On the procedure: as §1, §2, §3
The test system of experiment [2] is colorectal carcinoma HCT116. The experiment is described as follows: MTT cell viability assay, HCT116. It counts as cell-based, human. Particulars: Homo sapiens, HCT-116, 72 h, median (95% Confidence Intervals). As to the method:
as §1, §2, §3

Experiment [3] deals with colorectal carcinoma HCT116p53^−/−. The experiment is described as follows: MTT cell viability assay, HCT116p53−/−. It counts as cell-based, human. The note with it: Homo sapiens, 72 h, median (95% Confidence Intervals). On the procedure:
as §1, §2, §3

A further experiment deals with glioblastoma U-87 MG. The experiment is described as follows: MTT cell viability assay, U-87 MG. It counts as cell-based, human. Particulars: Homo sapiens, 72 h, median (95% Confidence Intervals). As to the method: as §1, §2, §3
The test system of experiment [4] is breast adenocarcinoma MCF7. The experiment is described as follows: MTT cell viability assay, MCF7. It counts as cell-based, human. The note with it: Homo sapiens, 72 h, median (95% Confidence Intervals). As to the method: as §1, §2, §3
Experiment [5] concerns cervical squamous cell carcinoma SKG-IIIa. The experiment is described as follows: MTT cell viability assay, SKG-IIIa. It counts as cell-based, human. The note with it: Homo sapiens, SKGIIIa, 72 h, median (95% Confidence Intervals). On the procedure: as §1, §2, §3
For experiment [6], the system named is cervical adenocarcinoma HeLa. The experiment is described as follows: MTT cell viability assay, HeLa. Particulars: Homo sapiens, 72 h, median (95% Confidence Intervals). It counts as cell-based, human. On the procedure:
as §1, §2, §3

Another experiment concerns bone osteosarcoma U-2 OS. The experiment is described as follows: MTT cell viability assay, U-2 OS. The note with it: Homo sapiens, U2OS, 72 h, median (95% Confidence Intervals). It counts as cell-based, human. As to the method: as §1, §2, §3
Experiment [7] relates to hepatocellular carcinoma HEPG2. The experiment is described as follows: MTT cell viability assay, HEPG2. It counts as cell-based, human. Particulars: Homo sapiens, 72 h, median (95% Confidence Intervals). On the procedure: as §1, §2, §3
Experiment [8] concerns larynx squamous cell carcinoma BICR 18. The experiment is described as follows: MTT cell viability assay, BICR 18. It counts as cell-based, human. Particulars: Homo sapiens; BICR 18, MTT, 72 h; median (95% Confidence Intervals). As to the method: as §1, §2, §3
For the next experiment, the system named is kidney HEK 293T. The experiment is described as follows: MTT cell viability assay, HEK 293T. It counts as cell-based, human. Particulars: Homo sapiens, 72 h, median (95% Confidence Intervals). On the procedure: as §1, §2, §3
Experiment [9] concerns normal lung fibroblasts MRC-5. The experiment is described as follows: MTT cell viability assay, MRC-5. Particulars: Homo sapiens, MRC5; MRC-5, MTT, 72 h; median (95% Confidence Intervals). It counts as cell-based, human. As to the method:
as §1, §2, §3

The subject of another experiment is normal fibroblasts BJ. The experiment is described as follows: MTT cell viability assay, BJ. It counts as cell-based, human. The note with it: Homo sapiens, Fibroblast, 72 h, median (95% Confidence Intervals). As to the method:
as §1, §2, §3

In experiment [10] the target is T1, recombinant human PDE5A/PDE5 protein (Homo sapiens, UniProt O76074).
T1 construct: purchased Abcam
The experiment is described as follows: colorimetric PDE Activity Assay Kit (Abcam), PDE5 inhibition. It counts as biochemical. The note with it: for IC50: 200 μM cGMP, 40 ng enzyme, 20 min at 37 °C, 4% DMSO, read-out: IC50 against human PDE5; for Ki: read-out: Ki against human PDE5. As to the method: A high concentration of cGMP substrate was used (200 μM) due to the moderate sensitivity of the aforementioned assay.
The inhibitory effect of the tested compounds was measured using colorimetric PDE Activity Assay Kit (Abcam, Cambridge, UK). This assay allows the quantification of 5′-nucleotide released in the reaction catalyzed by tested phosphodiesterase, PDE5, using the additional enzyme 5′-nucleotidase to cleave the mentioned product, and next, using modified Malachite Green assay, the phosphate is quantified. The assay was carried in a 96-well plate at a volume of 40 μL in an assay buffer, containing 40 ng recombinant human PDE5A/PDE5 protein (Abcam), 200 μM cGMP, 25 kU 5′-nucleotidase and serially diluted ligand to preserve 4% of DMSO. The reaction was initiated with the enzyme and kept going for 20 min at 37 °C. The reaction was stopped by adding 80 μL of Green Assay reagent. After incubation at room temperature for 30 min (to develop color proportional to phosphate content), the absorbance at 620 nm was measured with The SpectraMax iD3 Multi-Mode Microplate Reader (Molecular Devices, San Jose, CA, USA). Inhibitors concentrations varied in the range of 2 pM–200 μM. Each experiment was repeated 4–5 times and IC50 values were calculated by global fitting of the sigmoidal dose response equation implemented in Origin 9.0 package (www.originlab.com). For each experiment, control reaction with no enzyme added and without inhibitor was also performed.

Experiment [11] has as its system breast adenocarcinoma MDA-MB-231. The experiment is described as follows: MTT cell viability assay, MDA-MB-231. It counts as cell-based, human. The note with it: Homo sapiens; MDA-MB-231, MTT, 72 h; median (95% Confidence Intervals). On the procedure:
as §1, §2, §3

`CN1CC(=O)N(Cc2cc3c(cc2Br)OCO3)[C@H](Cc2c[nH]c3ccccc23)C1=O` [Compound 7a, (R)-3-((1H-indol-3-yl)methyl)-4-((6-bromobenzo[d][1,3]dioxol-5-yl)methyl)-1-methylpiperazine-2,5-dione]: the IC50 in [1] was determined as 63.6 µM; in the experiment with lung carcinoma A549, 128 µM; in [2], 53 µM; in [3] it was 35.9 µM; in the experiment on glioblastoma U-87 MG, 110 µM; in experiment [4], 28.9 µM. In addition, the IC50 is 75.9 µM in experiment [5]; 79.2 µM in experiment [6]; 95.4 µM in the experiment with bone osteosarcoma U-2 OS; 103 µM in experiment [7]; 137 µM in experiment [8]; 12.3 µM in the experiment with kidney HEK 293T. The IC50 in [9] amounted to 116 µM; in the experiment on normal fibroblasts BJ, 117 µM; in [10] it was 22 ± 12 µM. Further, the “times less effective than tadalafil as PDE5 inhibitor” value in experiment [10] (compared with tadalafil, human PDE5) is “over 300”. The Ki in experiment [10] is 0.22 ± 0.17 µM.

`CN1CC(=O)N(Cc2cc3c(cc2Br)OCO3)[C@@H](Cc2c[nH]c3ccccc23)C1=O` [Compound 7b, (S)-3-((1H-indol-3-yl)methyl)-4-((6-bromobenzo[d][1,3]dioxol-5-yl)methyl)-1-methylpiperazine-2,5-dione]: the IC50 stood at 46.6 µM in [1]; 131 µM in the experiment with lung carcinoma A549; 58.7 µM in experiment [2]; 64.4 µM in [3]; 99 µM in the experiment with glioblastoma U-87 MG; 36.3 µM in experiment [4]. The IC50 was found to be 144 µM in experiment [11]; 57.3 µM in experiment [5]; 78.4 µM in experiment [6]; 88.8 µM in the experiment with bone osteosarcoma U-2 OS; 124 µM in experiment [7]; 142 µM in experiment [8]. Further, the IC50 worked out at 13.1 µM with kidney HEK 293T, 96.6 µM in [9], 103 µM in the experiment with normal fibroblasts BJ and 39 ± 27 µM in [10]. The Ki in experiment [10] amounted to 0.39 ± 0.36 µM.

Take `CN1CC(=O)N(Cc2ccc3c(c2)OCO3)[C@H](Cc2c[nH]c3ccccc23)C1=O` [Compound 6a, (R)-3-((1H-indol-3-yl)methyl)-4-(benzo[d][1,3]dioxol-5-ylmethyl)-1-methylpiperazine-2,5-dione]: the IC50 in experiment [1] amounted to 104 µM; in experiment [2] it was 102 µM; in experiment [3] it was 83.2 µM; with glioblastoma U-87 MG it was 153 µM; in experiment [4] it was 53.2 µM; in [5] it was 146 µM. Further, the IC50 in experiment [6] was found to be 120 µM; with bone osteosarcoma U-2 OS, 93.5 µM; with kidney HEK 293T, 10.5 µM; in experiment [10], 137 ± 47 µM. For the same compound, the inhibitory constant (Ki) in experiment [10] is 1.4 ± 0.8 µM.

For the compound `CN1CC(=O)N(Cc2ccc3c(c2)OCO3)[C@@H](Cc2c[nH]c3ccccc23)C1=O` [Compound 6b, (S)-3-((1H-indol-3-yl)methyl)-4-(benzo[d][1,3]dioxol-5-ylmethyl)-1-methylpiperazine-2,5-dione], the IC50 in experiment [1] worked out at 112 µM; in experiment [2] it was 83.7 µM; in experiment [3], 143 µM; in the experiment on glioblastoma U-87 MG it was 151 µM; in experiment [4] it was 54.1 µM; in experiment [11], 128 µM. The IC50 was 87.6 µM in [5]; 93.5 µM in experiment [6]; 88.3 µM in the experiment on bone osteosarcoma U-2 OS; 13 µM with kidney HEK 293T; 127 µM in experiment [9]; 143 µM in the experiment with normal fibroblasts BJ. Moreover, the IC50 in experiment [10] worked out at 260 ± 210 µM. Further, the inhibition constant (Ki) in [10] was 2.6 ± 2.7 µM.
